# Assay results: BindingDB's records for doi:10.7270/Q2M61HQ8 (Southern Research Specialized Biocontainment Screening …, 2010)
# pIC50: −log10 of the molar value.
# Molecular target: Large T antigen (Simian virus 40, UniProt P03070)
# Assay: TAg ATPase/helicase activity blockers – biochemical (AID 1903)
# Sequence of Large T antigen (P03070 whole entry): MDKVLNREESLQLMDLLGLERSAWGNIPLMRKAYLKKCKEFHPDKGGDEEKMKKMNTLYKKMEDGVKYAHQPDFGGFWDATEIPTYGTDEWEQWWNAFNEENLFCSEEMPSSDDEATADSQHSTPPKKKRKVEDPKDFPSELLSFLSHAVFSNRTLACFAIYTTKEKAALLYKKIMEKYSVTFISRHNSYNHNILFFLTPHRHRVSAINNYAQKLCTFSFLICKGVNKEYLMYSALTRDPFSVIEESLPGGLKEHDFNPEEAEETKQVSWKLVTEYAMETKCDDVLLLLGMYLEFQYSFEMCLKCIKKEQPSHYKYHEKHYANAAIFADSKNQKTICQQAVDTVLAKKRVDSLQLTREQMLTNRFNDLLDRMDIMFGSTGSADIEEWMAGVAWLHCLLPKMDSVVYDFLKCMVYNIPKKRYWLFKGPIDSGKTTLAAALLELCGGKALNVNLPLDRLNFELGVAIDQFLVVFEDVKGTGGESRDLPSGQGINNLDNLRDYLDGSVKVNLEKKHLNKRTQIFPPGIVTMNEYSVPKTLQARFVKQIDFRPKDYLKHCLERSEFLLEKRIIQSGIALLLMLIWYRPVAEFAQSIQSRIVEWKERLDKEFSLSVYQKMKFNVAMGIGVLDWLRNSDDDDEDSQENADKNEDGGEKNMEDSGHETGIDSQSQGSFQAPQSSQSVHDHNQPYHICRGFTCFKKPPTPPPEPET
row,pIC50,SMILES
1,4.47,Cc1ccc(Nc2oc3cc(=O)ccc-3cc2C(N)=O)cc1 [2-(4-methylanilino)-7-oxochromene-3-carboxamide]
2,4.91,"O=C1CCCC(=O)C1=CNc1ccc(O)cc1 [2-[(4-hydroxyanilino)methylidene]cyclohexane-1,3-dione]"
3,5.00,"N#CC1C(=N)C2=C(N3CCCCC3)CCCC2C1(C#N)C#N (stereo unspecified) [3-Amino-4-piperidin-1-yl-5,6,7,7a-tetrahydro-indene-1,1,2-tricarbonitrile]"
4,4.32,"O=C1CCCC2=Nc3[nH]c(=S)[nH]c(=O)c3C(c3ccc(Br)cc3)C12 (stereo unspecified) [5-(4-bromophenyl)-2-thioxo-2,3,5,8,9,10-hexahydropyrimido[4,5-b]quinoline-4,6(1H,7H)-dione]"
5,5.28,CN(C)c1ccc(N=CCC(=O)c2ccccc2)cc1 [(E)-3-[4-(dimethylamino)anilino]-1-phenyl-2-propen-1-one]
6,4.60,Cc1cc(-c2nc3c4c5c(sc4nc(=O)n3[nH]2)CCC5)c(C)o1 [MLS000048351]
7,5.38,Oc1ccc(-c2nc3c[nH]ccn-3c2=Nc2ccc3c(c2)OCCO3)cc1 [MLS000116162]
8,5.04,"CN(C)c1ccc(NC(=O)c2cccc(-n3c(O)ccc3O)c2)cc1 [N-[4-(dimethylamino)phenyl]-3-(2,5-dioxopyrrolidin-1-yl)benzamide]"
9,5.26,CC1(C)CC(=O)C(=CNc2ccc(O)cc2)C(=O)C1 [SMR000024722]
10,5.30,COc1cc(-c2nc3c[nH]ccn-3c2=Nc2ccccc2)ccc1O [SMR000093145]

row,SMILES,pIC50
1,"CCN(CC)CCN1C(=O)C(=O)C(C(=O)c2ccc(C)cc2)C1c1cccnc1 (stereo unspecified) [(4E)-1-[2-(diethylamino)ethyl]-4-[hydroxy-(4-methylphenyl)methylidene]-5-(3-pyridinyl)pyrrolidine-2,3-dione]",4.72
